Experiments:
H2 receptors = conditions: in words; cited from earlier work
[1] = system: histamine-induced gastric acid output; assay: Gastric antisecretory activity in the gastric fistula dog (histamine-induced gastric acid output); format: in vivo, dog (beagle)
Method: Determination of Gastric Antisecretory Activity in the Gastric Fistula Dog
Thomas type [Thomas, J. E., Proc. Soc. exp. Biol. Med., 46, 260 (1941)] stainless steel cannulae are inserted into the stomachs of beagle dogs (10-12 kg.) just orad to the pyloric gland area near the greater curvature to provide a chronic gastric fistula. Animals are allowed to recover for at least two months before any testing is done. Dogs are fasted overnight (~18 hours) with water ad lib prior to each experiment. The dogs are placed in a sling and an eight inch inside needle catheter (C. R. Baird, Inc.) with a two inch 17 gauge needle is inserted into a leg vein for purposes of drug administration. Gastric secretions are collected every 15 minutes by gravity drainage from the opened cannula. […] A modification of the procedure described by Grossman and Konturek, Gastroenterology, 66, 517 (1974) was followed. […] Each 15 minute sample of gastric juice is measured to the nearest 0.5 ml. and titratable acidity against 0.02 N NaOH (endpoint pH 7.0) is measured with an Autoburet and pH meter (radiometer). The percent inhibition of acid output is calculated as described in the pylorus ligated rat procedure.

[2] = in words; cited from earlier work
[3] = clinical, in words; cited from earlier work
gastric acid output = assay: Gastric antisecretory activity in the two hour pylorus ligated (Shay) rat; format: in vivo, rat (male Long Evans)
Text: Determination of Gastric Antisecretory Activity in the Two Hour Pylorus Ligated (Shay) Rat
The pyloric ligation procedure in the rat was designed by Shay et al., Gastroenterology, 5,53 (1945) for the study of perforating gastric ulcers; however, as the method became known, it was also employed as a means of studying rat gastric secretion, Shay et al., Gastroenterology, 26, 906 (1954), Brodie, D. A., Am. J. Dig. Dis., 11, 231 (1966). A modification of this procedure is presently used to evaluate compounds for gastric antisecretory activity.
Male Long Evans rats, 280-300 gm., are used. The animals are placed in individual cages and fasted for 24 hours with free access to water. Under ether anesthesia, the stomach is reached through a midline incision, and a cotton-thread ligature is placed around the pylorus. After wound closure, ether administration is stopped and either BL-5641, cimetidine or vehicle are administered intraperitoneally in a volume of […]. BL-5641 and cimetidine are solubilized with one equivalent of HCl and brought to the proper volume with water. The animals are returned to their cages from which the water bottles have been removed and two hours later are sacrificed with ether. The stomach is removed and the two hour gastric collection is drained into a graduated test tube for volume determination. Titratable acidity is measured by titrating a one ml. sample to pH 7.0 with 0.02 N NaOH, using an Autoburet and an electrometric pH meter (Radiometer). Titratable acid output is calculated in microequivalents by multiplying the volume in milliliters by the acid concentration in milliequivalents per liter. The percent inhibition of acid output is calculated as follows [formula]

histamine H2-receptors = biological target: T1, histamine H2-receptors (Cavia porcellus, UniProt P47747); assay: Histamine H2-receptor antagonism, isolated guinea pig right atria assay; format: cell-based
T1 construct: The spontaneously beating right atrium was dissected free from other tissues; from tissue; host or cells: isolated spontaneously beating right atrium of male Hartley guinea pigs
Method: Subsequent investigations by Hughes and Coret, Proc. Soc. […] Black et al., Agents and Actions, 3, 133 (1973) and Brimblecombe et al., Fed. […] The present comparative studies were carried out using a modification of the procedure reported by Reinhardt et al., Agents and Actions, 4, 217 (1974).
Male Hartley strain guinea pigs (350-450 gm.) were sacrificed by a blow on the head. The heart was excised and placed in a Petri dish of oxygenated (95% O2, 5% CO2) modified Krebs solution (g./liter: NaCl 6.6, KCl 0.35, MgSO4.7 H2 O 0.295, KH2 PO4 0.162, CaCl2 0.238, NaHCO3 2.1 and dextrose 2.09). The spontaneously beating right atrium was dissected free from other tissues and a silk thread (4-0) attached to each end. The atrium was suspended in a 20 ml. muscle chamber containing oxygenated modified Krebs solution maintained at 32° C. Atrial contractions were recorded isometrically by means of a Grass FT 0.03 force displacement transducer and recordings of contractile force and rate were made with a Beckman RP Dynograph.
A resting tension of 1 g. was applied to the atrium and it was allowed to equilibrate for 1 hour.
Concentration-response curve displacement factors were calculated as follows: [formula] The factor obtained for BL-5641 was then expressed as a ratio of the factor obtained for cimetidine. [formula]

peptic ulcer disease = conditions: clinical evaluation, in words; cited from earlier work

T1 sequence (P47747 whole entry): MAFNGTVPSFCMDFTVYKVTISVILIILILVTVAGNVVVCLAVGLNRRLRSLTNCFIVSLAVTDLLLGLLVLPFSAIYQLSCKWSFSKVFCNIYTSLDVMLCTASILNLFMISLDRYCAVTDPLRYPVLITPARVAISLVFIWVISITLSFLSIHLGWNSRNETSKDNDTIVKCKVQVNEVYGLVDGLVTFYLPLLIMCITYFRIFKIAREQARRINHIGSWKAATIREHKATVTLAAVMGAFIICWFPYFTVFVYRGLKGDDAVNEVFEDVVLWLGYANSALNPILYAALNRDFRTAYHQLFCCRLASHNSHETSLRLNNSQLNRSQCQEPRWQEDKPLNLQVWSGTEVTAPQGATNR

CNC(=NC#N)NCCSCc1[nH]cnc1C [Cimetidine]
H2 antagonist potency/effectiveness (H2 receptors): as effective an H2 antagonist as metiamide | % Inhibition Acid Output ([1]; 0.75 μM/kg. iv, 15 min, dog 23553, N=1): 50% | % Inhibition Acid Output ([1]; 0.75 μM/kg. iv, 30 min, dog 23553, N=1): 10% | % Inhibition Acid Output ([1]; 0.75 μM/kg. iv, 45 min, dog 23553, N=1): 24% | % Inhibition Acid Output ([1]; 0.75 μM/kg. iv, 60 min, dog 23553, N=1): 17% | % Inhibition Acid Output ([1]; 0.75 μM/kg. iv, 75 min, dog 23553, N=1): 35% | % Inhibition Acid Output ([1]; 0.75 μM/kg. iv, 90 min, dog 23553, N=1): 27% | % Inhibition Acid Output ([1]; 0.75 μM/kg. iv, 105 min, dog 23553, N=1): 25% | % Inhibition Acid Output ([1]; 0.75 μM/kg. iv, 120 min, dog 23553, N=1): 19% | % Inhibition Acid Output ([1]; 1.5 μM/kg. iv, 15 min, dog 24895, N=1): 73% | % Inhibition Acid Output ([1]; 1.5 μM/kg. iv, 30 min, dog 24895, N=1): 57% | % Inhibition Acid Output ([1]; 1.5 μM/kg. iv, 45 min, dog 24895, N=1): 60% | % Inhibition Acid Output ([1]; 1.5 μM/kg. iv, 60 min, dog 24895, N=1): 29% | % Inhibition Acid Output ([1]; 1.5 μM/kg. iv, 75 min, dog 24895, N=1): 0% | % Inhibition Acid Output ([1]; 1.5 μM/kg. iv, 90 min, dog 24895, N=1): 18% | % Inhibition Acid Output ([1]; 1.5 μM/kg. iv, 105 min, dog 24895, N=1): 0% | % Inhibition Acid Output ([1]; 1.5 μM/kg. iv, 120 min, dog 24895, N=1): 0% | % Inhibition Acid Output ([1]; 3 μM/kg. iv, 15 min, dog 23606, N=1): 43% | % Inhibition Acid Output ([1]; 3 μM/kg. iv, 30 min, dog 23606, N=1): 27% | % Inhibition Acid Output ([1]; 3 μM/kg. iv, 45 min, dog 23606, N=1): 15% | % Inhibition Acid Output ([1]; 3 μM/kg. iv, 60 min, dog 23606, N=1): 0% | % Inhibition Acid Output ([1]; 3 μM/kg. iv, 75 min, dog 23606, N=1): 17% | % Inhibition Acid Output ([1]; 3 μM/kg. iv, 90 min, dog 23606, N=1): 38% | % Inhibition Acid Output ([1]; 3 μM/kg. iv, 105 min, dog 23606, N=1): 8% | % Inhibition Acid Output ([1]; 3 μM/kg. iv, 120 min, dog 23606, N=1): 0% | % Inhibition Acid Output ([1]; 6 μM/kg. iv, 15 min, dog 22619, N=1): 84% | % Inhibition Acid Output ([1]; 6 μM/kg. iv, 30 min, dog 22619, N=1): 96% | % Inhibition Acid Output ([1]; 6 μM/kg. iv, 45 min, dog 22619, N=1): 73% | % Inhibition Acid Output ([1]; 6 μM/kg. iv, 60 min, dog 22619, N=1): 67% | % Inhibition Acid Output ([1]; 6 μM/kg. iv, 75 min, dog 22619, N=1): 65% | % Inhibition Acid Output ([1]; 6 μM/kg. iv, 90 min, dog 22619, N=1): 54% | % Inhibition Acid Output ([1]; 6 μM/kg. iv, 105 min, dog 22619, N=1): 40% | % Inhibition Acid Output ([1]; 6 μM/kg. iv, 120 min, dog 22619, N=1): 32% | % Inhibition Acid Output ([1]; 12 μM/kg. iv, 15 min, dog 24136, N=1): 63% | % Inhibition Acid Output ([1]; 12 μM/kg. iv, 30 min, dog 24136, N=1): 99% | % Inhibition Acid Output ([1]; 12 μM/kg. iv, 45 min, dog 24136, N=1): 89% | % Inhibition Acid Output ([1]; 12 μM/kg. iv, 60 min, dog 24136, N=1): 76% | % Inhibition Acid Output ([1]; 12 μM/kg. iv, 75 min, dog 24136, N=1): 54% | % Inhibition Acid Output ([1]; 12 μM/kg. iv, 90 min, dog 24136, N=1): 48% | % Inhibition Acid Output ([1]; 12 μM/kg. iv, 105 min, dog 24136, N=1): 41% | % Inhibition Acid Output ([1]; 12 μM/kg. iv, 120 min, dog 24136, N=1): 14% | onset of effect on gastric acid output ([1]; iv, in words): immediate inhibitory effect on gastric acid output | half-life [2]: relatively short | toxicity (agranulocytosis) [3]: without producing agranulocytosis | % Inhibition of Acid Output (gastric acid output; 5 μMole/kg. ip, 2 h (cimetidine 1.25 mg/kg)): 34% | % Inhibition of Acid Output (gastric acid output; 10 μMole/kg. ip, 2 h (BL-5641 2.76 mg/kg; cimetidine 2.5 mg/kg)): 40% | % Inhibition of Acid Output (gastric acid output; 20 μMole/kg. ip, 2 h (BL-5641 5.53 mg/kg; cimetidine 5 mg/kg)): 60% | % Inhibition of Acid Output (gastric acid output; 40 μMole/kg. ip, 2 h (BL-5641 11.1 mg/kg; cimetidine 10 mg/kg)): 66% | ED50 (gastric acid output; Rattus norvegicus, ip, 2 h, read-out: ED50 (inhibition of acid output)): ~14 µmol/kg | Activity Ratio (histamine H2-receptors): 1.0 | Histamine ED50 With 95% Confidence Limits (histamine H2-receptors; histamine ED50 in presence of test compound 1 × 10^-5 M, 30 min incubation): 1.39 µg/mL | Concentration-Response Curve Displacement Factor (histamine H2-receptors; test compound 1 × 10^-5 M): 6.6 | therapeutic effect in peptic ulcer disease (peptic ulcer disease): effective therapeutic agent in the treatment of peptic ulcer disease

Source: patent publication US4157347A, “N-cyano isothioureas” (Bristol-Myers Company, priority 1978, dated 1979)
